Laboratory results published in PubChem BioAssay AID328 (DTP/NCI, 2004).
Values joined by “and” are separate entries in the source; they are usually repeats but may differ in a detail not shown here. Equal values may be shown once. Inconclusive results and toxic doses are left out. Rule for the calls: active = survival T/C of 150% or more; inactive = T/C below 125% in these data.

Test system: BDF1 mice, P388 leukemia ip, median survival T/C
Assay: NCI In Vivo Anticancer Drug Screen. Data for tumor model P388 Leukemia (intraperitoneal) in B6D2F1 (BDF1) mice
Conditions: endpoint: median survival time, higher = longer survival
Method in brief: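 Vehicle-dosed animals serve as the reference; survival of compound-dosed, tumour-implanted mice is divided by it.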

[1] = dose: 50.0 mg/kg/injection, schedule: Q04DX003 (ip), vehicle: saline
[2] = dose: 100.0 mg/kg/injection, schedule: Q01DX009 (ip), vehicle: saline with Tween-80
[3] = dose: 50.0 mg/kg/injection, schedule: Q01DX009 (ip), vehicle: saline with Tween-80

Measured: T/C

CCCCCCCCCCCCN(C)C
inactive: dose: 12.5 mg/kg/injection, schedule: Q04DX003 (ip), vehicle: saline 104 % of control | dose: 25.0 mg/kg/injection, schedule: Q04DX003 (ip), vehicle: saline 109 % of control | [1] 118 % of control

CC(C)SC=O
inactive: dose: 25.0 mg/kg/injection, schedule: Q01DX009 (ip), vehicle: saline 100 % of control | dose: 50.0 mg/kg/injection, schedule: Q01DX009 (ip), vehicle: saline 101 % of control | [1] 101 % of control | dose: 100.0 mg/kg/injection, schedule: Q01DX009 (ip), vehicle: saline 92 % of control and 97 % of control | dose: 100.0 mg/kg/injection, schedule: Q04DX003 (ip), vehicle: saline 109 % of control | dose: 200.0 mg/kg/injection, schedule: Q01DX009 (ip), vehicle: saline 86 % of control | dose: 200.0 mg/kg/injection, schedule: Q04DX003 (ip), vehicle: saline 98 % of control | dose: 400.0 mg/kg/injection, schedule: Q01DX009 (ip), vehicle: saline 97 % of control and 118 % of control | dose: 400.0 mg/kg/injection, schedule: Q04DX003 (ip), vehicle: saline 103 % of control

Cc1ccc(C)c(-n2c(-c3ccc(Br)cc3)csc2=NC(=O)c2ccccc2F)c1
inactive: [2] 110 % of control | dose: 200.0 mg/kg/injection, schedule: Q01DX009 (ip), vehicle: saline with Tween-80 100 % of control | dose: 400.0 mg/kg/injection, schedule: Q01DX009 (ip), vehicle: saline with Tween-80 115 % of control

CC1=NNC(=O)C1CCO (configuration not stated)
inactive: dose: 50.0 mg/kg/injection, schedule: Q01DX009 (ip), vehicle: Klucel (hydroxypropylcellulose) (HPC) 86 % of control | dose: 100.0 mg/kg/injection, schedule: Q01DX009 (ip), vehicle: Klucel (hydroxypropylcellulose) (HPC) 104 % of control | dose: 175.0 mg/kg/injection, schedule: Q01DX009 (ip), vehicle: Klucel (hydroxypropylcellulose) (HPC) 90 % of control | dose: 200.0 mg/kg/injection, schedule: Q01DX009 (ip), vehicle: Klucel (hydroxypropylcellulose) (HPC) 122 % of control | dose: 265.0 mg/kg/injection, schedule: Q01DX009 (ip), vehicle: Klucel (hydroxypropylcellulose) (HPC) 104 % of control | dose: 400.0 mg/kg/injection, schedule: Q01DX009 (ip), vehicle: Klucel (hydroxypropylcellulose) (HPC) 95 % of control

O=C(O)CC1SC(=S)N(c2ccccc2)C1=O (configuration not stated)
inactive: [3] 101 % of control | [2] 105 % of control

COc1cc2c3c(c1O)C1(C=CC(=O)C=C1)CC3N(C)CC2 (configuration not stated)
inactive: [3] 112 % of control | [2] 115 % of control

NNC(=O)c1cccc(N)c1
inactive: dose: 25.0 mg/kg/injection, schedule: Q01DX009 (ip), vehicle: saline with Tween-80 100 % of control | [3] 90 % of control | [2] 100 % of control

Cc1ccc2nc(-c3ccc(CSC(=N)N)cc3)oc(=O)c2c1
inactive: dose: 0.78 mg/kg/injection, schedule: Q01DX009 (ip), vehicle: saline with Tween-80 96 % of control | dose: 1.56 mg/kg/injection, schedule: Q01DX009 (ip), vehicle: saline with Tween-80 99 % of control | dose: 3.12 mg/kg/injection, schedule: Q01DX009 (ip), vehicle: saline with Tween-80 96 % of control

ClCc1ccc(CCl)cc1
inactive: dose: 7.03 mg/kg/injection, schedule: Q01DX009 (ip), vehicle: Klucel (hydroxypropylcellulose) (HPC) 110 % of control
